Data as given in US20080262056A1, “Oxindole Oxazolidinones as Antibacterial Agents” (Pfizer Inc, priority 2004, published 2008).
≈ marks a conversion by molar mass, not a printed value.

Tests used:
Assay type in all cases: cell-based
[1] = tested on: S. pneumoniae SV1 SP-3; test: in vitro antibacterial activity (MIC), S. pneumoniae; details: Streptococcus pneumoniae, SV1SP3
Excerpt: (§1) The in vitro antibacterial activity of the compounds of the present invention may be assessed by following procedures recommended in (1) National Committee for Clinical Laboratory Standards (January 2003), Methods for dilution antimicrobial tests for bacteria that grow aerobically, Approved Standard (6th ed), M7-A6, NCCLS, Wayne, Pa.; (2) National Committee for Clinical Laboratory Standards (March 2001), Methods for antimicrobial susceptibility testing of anaerobic bacteria, Approved Standard (5th ed), M11-A4, NCCLS, Wayne, Pa.; (3) National Committee for Clinical Laboratory Standards (Jan. 2003), MIC testing supplemental tables, M100-S13 (for use with M7-A6), NCCLS, Wayne, Pa.; and (4) Murray P R, Baron E J, Jorgensen J H, et al. Manual of Clinical Microbiology (8th ed) Washington, D.C.: American Society for Microbiology Press, 2003. The MIC value is the lowest concentration of drug which prevented macroscopically visible growth under the conditions of the test.

[2] = tested on: E. faecalis MGH-2 EF 1-1; test: in vitro antibacterial activity (MIC), E. faecalis; details: Enterococcus faecalis, MGH2EF11
Excerpt: as §1

[3] = tested on: S. aureus UC-76 SA-1; test: in vitro antibacterial activity (MIC), S. aureus; details: for MIC90: Staphylococcus aureus, UC76, S. aureus UC-76 SA-1
Excerpt: as §1

Row | MIC90 [1] [µg/mL] | MIC90 [2] [µg/mL] | MIC90 [3] [µg/mL] | in vitro antibacterial activity MIC90 ([3]; S. aureus UC-76 SA-1) [µg/mL] | SMILES
1 | 4 (≈ 11.4 µM) | 2 (≈ 5.72 µM) | 4 (≈ 11.4 µM) | – | CCC(=O)NC[C@H]1CN(c2cc(F)c3c(c2)CC(=O)N3CC)C(=O)O1 [Example 8, (S)—N-[3-(1-ethyl-7-fluoro-2-oxo-2,3-dihydro-1H-indol-5-yl)-2-oxo-oxazolidin-5-ylmethyl]-propionamide]
2 | 2 (≈ 5.72 µM) | 4 (≈ 11.4 µM) | 8 (≈ 22.9 µM) | – | CC(=O)NC[C@H]1CN(c2ccc3c(c2)CC(=O)N3C(C)CF)C(=O)O1 (stereo partly drawn) [Example 28, (S)—N-{3-[1-(2-fluoro-1-methyl-ethyl)-2-oxo-2,3-dihydro-1H-indol-5-yl]-2-oxo-oxazolidin-5-ylmethyl}-acetamide]
3 | 4 (≈ 11.6 µM) | 8 (≈ 23.2 µM) | 8 (≈ 23.2 µM) | – | CCCN1C(=O)Cc2cc(N3C[C@H](CNC(=O)CC)OC3=O)ccc21 [Example 18, (S)—N-[2-oxo-3-(2-oxo-1-propyl-2,3-dihydro-1H-indol-5-yl)-oxazolidin-5-ylmethyl]-propionamide]
4 | 8 (≈ 22.3 µM) | 8 (≈ 22.3 µM) | 8 (≈ 22.3 µM) | – | CCC(=O)NC[C@H]1CN(c2ccc3c(c2)CC(=O)N3C(C)CC)C(=O)O1 (stereo partly drawn) [Example 25, (S)—N-[3-(1-sec-butyl-2-oxo-2,3-dihydro-1H-indol-5-yl)-2-oxo-oxazolidin-5-ylmethyl]-propionamide]
5 | 4 (≈ 11 µM) | 8 (≈ 22 µM) | 8 (≈ 22 µM) | – | CCCN1C(=O)Cc2cc(N3C[C@H](CNC(=O)CC)OC3=O)cc(F)c21 [Example 20, (S)—N-[3-(7-Fluoro-2-oxo-1-propyl-2,3-dihydro-1H-indol-5-yl)-2-oxo-oxazolidin-5-ylmethyl]-propionamide]
6 | 4 (≈ 11.2 µM) | 8 (≈ 22.4 µM) | 8 (≈ 22.4 µM) | – | CCC(=O)NC[C@H]1CN(c2ccc3c(c2)CC(=O)N3CC2CC2)C(=O)O1 [Example 27, (S)—N-[3-(1-cyclopropylmethyl-2-oxo-2,3-dihydro-1H-indol-5-yl)-2-oxo-oxazolidin-5-ylmethyl]-propionamide]
7 | 4 (≈ 11 µM) | 4 (≈ 11 µM) | 8 (≈ 22 µM) | – | CCC(=O)NC[C@H]1CN(c2cc(F)c3c(c2)CC(=O)N3C(C)C)C(=O)O1 [Example 16, (S)—N-[3-(7-fluoro-1-isopropyl-2-oxo-2,3-dihydro-1H-indol-5-yl)-2-oxo-oxazolidin-5-ylmethyl]-propionamide]
8 | 1 (≈ 2.83 µM) | 2 (≈ 5.66 µM) | 4 (≈ 11.3 µM) | – | CC(=O)NC[C@H]1CN(c2cc(F)c3c(c2)CC(=O)N3CCF)C(=O)O1 [Example 11, (S)—N-{3-[7-fluoro-1-(2-fluoro-ethyl)-2-oxo-2,3-dihydro-1H-indol-5-yl]-2-oxo-oxazolidin-5-ylmethyl}-acetamide]
9 | 2 (≈ 5.96 µM) | 2 (≈ 5.96 µM) | 8 (≈ 23.9 µM) | – | CC(=O)NC[C@H]1CN(c2ccc3c(c2)CC(=O)N3CCF)C(=O)O1 [Example 9, (S)—N-{3-[1-(2-fluoro-ethyl)-2-oxo-2,3-dihydro-1H-indol-5-yl]-2-oxo-oxazolidin-5-ylmethyl}-acetamide]
10 | 4 (≈ 10.9 µM) | 4 (≈ 10.9 µM) | 8 (≈ 21.8 µM) | – | CCC(=O)NC[C@H]1CN(c2cc(F)c3c(c2)CC(=O)N3CCF)C(=O)O1 [Example 12, (S)—N-{3-[7-fluoro-1-(2-fluoro-ethyl)-2-oxo-2,3-dihydro-1H-indol-5-yl]-2-oxo-oxazolidin-5-ylmethyl}-propionamide]
11 | 2 (≈ 6.04 µM) | 4 (≈ 12.1 µM) | 4 (≈ 12.1 µM) | – | CCCN1C(=O)Cc2cc(N3C[C@H](CNC(C)=O)OC3=O)ccc21 [Example 17, (S)—N-[2-oxo-3-(2-oxo-1-propyl-2,3-dihydro-1H-indol-5-yl)-oxazolidin-5-ylmethyl]-acetamide]
12 | 2 (≈ 5.72 µM) | 2 (≈ 5.72 µM) | 4 (≈ 11.4 µM) | – | CC(=O)NC[C@H]1CN(c2cc(F)c3c(c2)CC(=O)N3C(C)C)C(=O)O1 [Example 15, (S)—N-[3-(7-fluoro-1-isopropyl-2-oxo-2,3-dihydro-1H-indol-5-yl)-2-oxo-oxazolidin-5-ylmethyl]-acetamide]
13 | 4 (≈ 11.6 µM) | 4 (≈ 11.6 µM) | 8 (≈ 23.2 µM) | – | CCC(C)N1C(=O)Cc2cc(N3C[C@H](CNC(C)=O)OC3=O)ccc21 (stereo partly drawn) [Example 24, (S)—N-[3-(1-sec-butyl-2-oxo-2,3-dihydro-1H-indol-5-yl)-2-oxo-oxazolidin-5-ylmethyl]-acetamide]
14 | 4 (≈ 11.6 µM) | 8 (≈ 23.2 µM) | 8 (≈ 23.2 µM) | – | CCC(=O)NC[C@H]1CN(c2ccc3c(c2)CC(=O)N3C(C)C)C(=O)O1 [Example 14, (S)—N-[3-(1-isopropyl-2-oxo-2,3-dihydro-1H-indol-5-yl)-2-oxo-oxazolidin-5-ylmethyl]-propionamide]
15 | 2 (≈ 6.07 µM) | 4 (≈ 12.1 µM) | 8 (≈ 24.3 µM) | – | CC(=O)NC[C@H]1CN(c2ccc3c(c2)CC(=O)N3C2CC2)C(=O)O1 [Example 21, (S)—N-[3-(1-cyclopropyl-2-oxo-2,3-dihydro-1H-indol-5-yl)-2-oxo-oxazolidin-5-ylmethyl]-acetamide]
16 | 2 (≈ 6.04 µM) | 4 (≈ 12.1 µM) | 4 (≈ 12.1 µM) | – | CC(=O)NC[C@H]1CN(c2ccc3c(c2)CC(=O)N3C(C)C)C(=O)O1 [Example 13, (S)—N-[3-(1-isopropyl-2-oxo-2,3-dihydro-1H-indol-5-yl)-2-oxo-oxazolidin-5-ylmethyl]-acetamide]
17 | 2 (≈ 6.3 µM) | 8 (≈ 25.2 µM) | 8 (≈ 25.2 µM) | – | CCN1C(=O)Cc2cc(N3C[C@H](CNC(C)=O)OC3=O)ccc21 [Example 5, (S)—N-[3-(1-ethyl-2-oxo-2,3-dihydro-1H-indol-5-yl)-2-oxo-oxazolidin-5-ylmethyl]-acetamide]
18 | 1 (≈ 3.15 µM) | 2 (≈ 6.3 µM) | 8 (≈ 25.2 µM) | – | CCC(=O)NC[C@H]1CN(c2ccc3c(c2)CC(=O)N3C)C(=O)O1 [Example 2, (S)—N-[3-(1-methyl-2-oxo-2,3-dihydro-1H-indol-5-yl)-2-oxo-oxazolidin-5-ylmethyl]-propionamide]
19 | 2 (≈ 6.04 µM) | 2 (≈ 6.04 µM) | 4 (≈ 12.1 µM) | – | CCC(=O)NC[C@H]1CN(c2ccc3c(c2)CC(=O)N3CC)C(=O)O1 [Example 6, (S)—N-[3-(1-ethyl-2-oxo-2,3-dihydro-1H-indol-5-yl)-2-oxo-oxazolidin-5-ylmethyl]-propionamide]
20 | 4 (≈ 11.5 µM) | 4 (≈ 11.5 µM) | 8 (≈ 23 µM) | – | CC(=O)NC[C@H]1CN(c2cc(F)c3c(c2)CC(=O)N3C2CC2)C(=O)O1 [Example 23, (S)—N-[3-(1-cyclopropyl-7-fluoro-2-oxo-2,3-dihydro-1H-indol-5-yl)-2-oxo-oxazolidin-5-ylmethyl]-acetamide]
21 | 2 (≈ 6.22 µM) | 4 (≈ 12.4 µM) | 4 (≈ 12.4 µM) | – | CC(=O)NC[C@H]1CN(c2cc(F)c3c(c2)CC(=O)N3C)C(=O)O1 [Example 3, N-[3-(7-fluoro-1-methyl-2-oxo-2,3-dihydro-1H-indol-5-yl)-2-oxo-oxazolidin-5-ylmethyl]-acetamide]
22 | 4 (≈ 11.6 µM) | 4 (≈ 11.6 µM) | 8 (≈ 23.3 µM) | – | CC(=O)NC[C@H]1CN(c2ccc3c(c2)CC(=O)N3CC2CC2)C(=O)O1 [Example 26, (S)—N-[3-(1-cyclopropylmethyl-2-oxo-2,3-dihydro-1H-indol-5-yl)-2-oxo-oxazolidin-5-ylmethyl]-acetamide]
23 | 2 (≈ 5.53 µM) | 2 (≈ 5.53 µM) | 2 (≈ 5.53 µM) | – | CC(=O)NC[C@H]1CN(c2cc(F)c3c(c2)CC(=O)N3CC2CC2)C(=O)O1 [Example 29, (S)—N-[3-(1-cyclopropylmethyl-7-fluoro-2-oxo-2,3-dihydro-1H-indol-5-yl)-2-oxo-oxazolidin-5-ylmethyl]-acetamide]
24 | 2 (≈ 5.96 µM) | 4 (≈ 11.9 µM) | 8 (≈ 23.9 µM) | – | CCC(=O)NC[C@H]1CN(c2cc(F)c3c(c2)CC(=O)N3C)C(=O)O1 [Example 4, (S)—N-[3-(7-fluoro-1-methyl-2-oxo-2,3-dihydro-1H-indol-5-yl)-2-oxo-oxazolidin-5-ylmethyl]-propionamide]
25 | 4 (≈ 11.6 µM) | 4 (≈ 11.6 µM) | 8 (≈ 23.3 µM) | – | CCC(=O)NC[C@H]1CN(c2ccc3c(c2)CC(=O)N3C2CC2)C(=O)O1 [Example 22, (S)—N-[3-(1-cyclopropyl-2-oxo-2,3-dihydro-1H-indol-5-yl)-2-oxo-oxazolidin-5-ylmethyl]-propionamide]
26 | 2 (≈ 5.96 µM) | 2 (≈ 5.96 µM) | 2 (≈ 5.96 µM) | – | CCN1C(=O)Cc2cc(N3C[C@H](CNC(C)=O)OC3=O)cc(F)c21 [Example 7, (S)—N-[3-(1-ethyl-7-fluoro-2-oxo-2,3-dihydro-1H-indol-5-yl)-2-oxo-oxazolidin-5-ylmethyl]-acetamide]
27 | 1 (≈ 3.3 µM) | 2 (≈ 6.59 µM) | 8 (≈ 26.4 µM) | – | CC(=O)NC[C@H]1CN(c2ccc3c(c2)CC(=O)N3C)C(=O)O1 [Example 1, (S)—N-[3-(1-methyl-2-oxo-2,3-dihydro-1H-indol-5-yl)-2-oxo-oxazolidin-5-ylmethyl]-acetamide]
28 | 2 (≈ 5.72 µM) | 2 (≈ 5.72 µM) | 8 (≈ 22.9 µM) | 4 | CCC(=O)NC[C@H]1CN(c2ccc3c(c2)CC(=O)N3CCF)C(=O)O1 [Example 10, (S)—N-{3-[1-(2-fluoro-ethyl)-2-oxo-2,3-dihydro-1H-indol-5-yl]-2-oxo-oxazolidin-5-ylmethyl}-propionamide]
